The values below come from the NIST ThermoML archive (doi:10.1021/je500918t).

Numbers after ± are expanded uncertainties.

Data set [1] can be described thus: Molar enthalpy of transition or fusion. Particulars: Crystal; DSC.
For data set [2] the following is noted: Crystal; DTA.

Turning to `Cc1ccc(NS(=O)(=O)c2ccc(N)cc2)c(Cl)c1` [4-amino-N-(2-chloro-4-methylphenyl)benzenesulfonamide], in data set [1], the “Molar enthalpy of transition or fusion” value was determined as 7.58 ± 0.287 kcal/mol. For the same compound, the Normal melting temperature in data set [2] amounted to 155.7 ± 0.5 °C.

As to `O=S(=O)(Nc1ncccc1Cl)c1ccccc1` [N-(3-chloro-2-pyridinyl)benzenesulfonamide], the “Molar enthalpy of transition or fusion” value in data set [1] is 6.72 ± 0.287 kcal/mol. Besides, the Normal melting temperature in data set [2] came out at 131.0 ± 0.5 °C.

`Cc1ccc(NS(=O)(=O)c2ccc([N+](=O)[O-])cc2)nc1` [N-(5-methylpyridin-2-yl)-4-nitrobenzenesulfonamide]: the “Molar enthalpy of transition or fusion” value in data set [1] stood at 10.9 ± 0.311 kcal/mol. In addition, the Normal melting temperature in data set [2] turned out to be 161.0 ± 0.5 °C.

`Cc1ccc(Cl)cc1NS(=O)(=O)c1ccc(N)cc1` [4-amino-N-(5-chloro-2-methylphenyl)benzenesulfonamide]: the “Molar enthalpy of transition or fusion” value in data set [1] was 8.8 ± 0.287 kcal/mol. Also, in data set [2], the Normal melting temperature worked out at 149.6 ± 0.5 °C.

In the case of `Nc1ccc(S(=O)(=O)Nc2cc(Cl)c(Cl)cc2Cl)cc1` [4-amino-N-(2,4,5-trichlorophenyl)benzenesulfonamide], in data set [1], the “Molar enthalpy of transition or fusion” value was 9.49 ± 0.311 kcal/mol. Moreover, in data set [2], the Normal melting temperature turned out to be 188.1 ± 0.5 °C.

On to `Nc1ccc(S(=O)(=O)Nc2ccccc2Cl)c(Cl)c1` [4-amino-2-chloro-N-(2-chlorophenyl)benzenesulfonamide], for which the “Molar enthalpy of transition or fusion” value in data set [1] came out at 12.3 ± 0.335 kcal/mol. Further, the Normal melting temperature in data set [2] stood at 232 ± 0.5 °C.

On to `Cc1cc(N)ccc1S(=O)(=O)Nc1ccccc1[N+](=O)[O-]` [4-amino-2-methyl-N-(2-nitrophenyl)benzenesulfonamide], for which the “Molar enthalpy of transition or fusion” value in data set [1] amounted to 9.56 ± 0.311 kcal/mol. Moreover, the Normal melting temperature in data set [2] was determined as 178.2 ± 0.5 °C.

As to `O=S(=O)(Nc1ccc(Cl)cc1)c1ccccc1` [N-(4-chlorophenyl)benzenesulfonamide], the “Molar enthalpy of transition or fusion” value in data set [1] was 6.17 ± 0.263 kcal/mol. Besides, the Normal melting temperature in data set [2] turned out to be 121.5 ± 0.5 °C.

On to `CNS(=O)(=O)c1ccc(N)cc1` [4-amino-N-methylbenzenesulfonamide], for which the “Molar enthalpy of transition or fusion” value in data set [1] was determined as 4.09 ± 0.263 kcal/mol. In addition, in data set [2], the Normal melting temperature came to 109.1 ± 0.5 °C.

`Nc1ccc(S(=O)(=O)Nc2cc(Cl)ccc2Cl)cc1` [4-amino-N-(2,5-dichlorophenyl)benzenesulfonamide]: the “Molar enthalpy of transition or fusion” value in data set [1] was determined as 9.87 ± 0.311 kcal/mol. In addition, the Normal melting temperature in data set [2] came to 172.8 ± 0.5 °C.

For `CCc1ccc(NS(=O)(=O)c2ccc(N)cc2)cc1` [4-amino-N-(4-ethylphenyl)benzenesulfonamide], the “Molar enthalpy of transition or fusion” value in data set [1] was 8.68 ± 0.287 kcal/mol. Also, the Normal melting temperature in data set [2] came to 163.1 ± 0.5 °C.

With `CCN(CC)S(=O)(=O)c1ccc(N)cc1` [4-amino-N,N-diethylbenzenesulfonamide], the “Molar enthalpy of transition or fusion” value in data set [1] was determined as 4.64 ± 0.263 kcal/mol. The Normal melting temperature in data set [2] was found to be 105.7 ± 0.5 °C.

As for `CN(C)S(=O)(=O)c1ccc(N)cc1` [4-amino-N,N-dimethylbenzenesulfonamide], in data set [1], the “Molar enthalpy of transition or fusion” value worked out at 7.1 ± 0.287 kcal/mol. Also, in data set [2], the Normal melting temperature stood at 171.5 ± 0.5 °C.

Regarding `COc1ccc(NS(=O)(=O)c2ccc(N)cc2)cc1` [4-amino-N-(4-methoxyphenyl)benzenesulfonamide], the “Molar enthalpy of transition or fusion” value in data set [1] was 9.23 ± 0.311 kcal/mol. The Normal melting temperature in data set [2] is 194.2 ± 0.5 °C.

On to `O=S(=O)(Nc1ccccc1Cl)c1ccccc1` [N-(2-chlorophenyl)benzenesulfonamide], for which, in data set [1], the “Molar enthalpy of transition or fusion” value turned out to be 8.01 ± 0.287 kcal/mol. For the same compound, in data set [2], the Normal melting temperature is 125.1 ± 0.5 °C.

Turning to `Nc1ccc(S(=O)(=O)N(c2ccccc2)c2ccccc2)cc1` [4-amino-N,N-diphenylbenzenesulfonamide], in data set [1], the “Molar enthalpy of transition or fusion” value was 8.39 ± 0.287 kcal/mol. In addition, the Normal melting temperature in data set [2] was 179.5 ± 0.5 °C.

Regarding `O=[N+]([O-])c1ccc(S(=O)(=O)Nc2nccs2)cc1` [4-nitro-N-2-thiazolylbenzenesulfonamide], the “Molar enthalpy of transition or fusion” value in data set [1] stood at 7.6 ± 0.287 kcal/mol. In addition, the Normal melting temperature in data set [2] turned out to be 256.6 ± 0.5 °C.

For `Cc1cc(Cl)ccc1NS(=O)(=O)c1ccc(N)cc1` [4-amino-N-(4-chloro-2-methylphenyl)benzenesulfonamide], the “Molar enthalpy of transition or fusion” value in data set [1] came to 8.8 ± 0.287 kcal/mol. Further, the Normal melting temperature in data set [2] was found to be 149.6 ± 0.5 °C.

In the case of `Cc1ccc(NS(=O)(=O)c2ccc(N)cc2)cc1Cl` [4-amino-N-(3-chloro-4-methylphenyl)benzenesulfonamide], the “Molar enthalpy of transition or fusion” value in data set [1] was 10.9 ± 0.311 kcal/mol. Also, in data set [2], the Normal melting temperature came out at 204.5 ± 0.5 °C.

Regarding `O=S(=O)(Nc1cccc(Cl)c1Cl)c1ccccc1` [N-(2,3-dichlorophenyl)benzenesulfonamide], the “Molar enthalpy of transition or fusion” value in data set [1] is 6.5 ± 0.263 kcal/mol. Besides, the Normal melting temperature in data set [2] was determined as 114.1 ± 0.5 °C.

In the case of `Nc1ccc(S(=O)(=O)Nc2ccc([N+](=O)[O-])cc2Br)cc1` [4-amino-N-(2-bromo-4-nitrophenyl)benzenesulfonamide], in data set [1], the “Molar enthalpy of transition or fusion” value is 9.46 ± 0.311 kcal/mol. For the same compound, the Normal melting temperature in data set [2] stood at 188 ± 0.5 °C.

Regarding `Nc1ccc(S(=O)(=O)Nc2ccc(Cl)cc2)c(Cl)c1` [4-amino-2-chloro-N-(4-chlorophenyl)benzenesulfonamide], the “Molar enthalpy of transition or fusion” value in data set [1] was 8.34 ± 0.287 kcal/mol. Moreover, the Normal melting temperature in data set [2] came to 195.6 ± 0.5 °C.

`O=[N+]([O-])c1ccccc1NS(=O)(=O)c1ccccc1` [N-(2-nitrophenyl)benzenesulfonamide]: the “Molar enthalpy of transition or fusion” value in data set [1] turned out to be 5.33 ± 0.263 kcal/mol. Besides, the Normal melting temperature in data set [2] is 98.7 ± 0.5 °C.

Turning to `CCOC(=O)c1ccc(NS(=O)(=O)c2ccccc2)nc1` [ethyl 6-(phenylsulfonamido)nicotinate], in data set [1], the “Molar enthalpy of transition or fusion” value is 5.38 ± 0.263 kcal/mol. In addition, in data set [2], the Normal melting temperature amounted to 154.8 ± 0.5 °C.

For the compound `Nc1ccc(S(=O)(=O)Nc2ccc(Cl)cc2)cc1` [4-amino-N-(4-chlorophenyl)benzenesulfonamide], the “Molar enthalpy of transition or fusion” value in data set [1] is 5.69 ± 0.263 kcal/mol. The Normal melting temperature in data set [2] worked out at 194.8 ± 0.5 °C.

With `Cc1cc(N)ccc1S(=O)(=O)Nc1ccc(Cl)cc1` [4-amino-N-(4-chlorophenyl)-2-methylbenzenesulfonamide], the “Molar enthalpy of transition or fusion” value in data set [1] came out at 8.53 ± 0.287 kcal/mol. In addition, the Normal melting temperature in data set [2] turned out to be 173.4 ± 0.5 °C.

As to `Nc1ccc(S(=O)(=O)Nc2cccc(Cl)c2Cl)cc1` [4-amino-N-(2,3-dichlorophenyl)benzenesulfonamide], the “Molar enthalpy of transition or fusion” value in data set [1] came to 9.78 ± 0.311 kcal/mol. For the same compound, in data set [2], the Normal melting temperature was 181.2 ± 0.5 °C.

As to `CC(=O)Nc1ccncc1NS(=O)(=O)c1ccc([N+](=O)[O-])cc1` [N-[3-[[(4-nitrophenyl)sulfonyl]amino]-4-pyridinyl]-acetamide], in data set [1], the “Molar enthalpy of transition or fusion” value was found to be 9.89 ± 0.311 kcal/mol. Moreover, the Normal melting temperature in data set [2] came to 238.0 ± 0.5 °C.

Take `O=S(=O)(Nc1ccccc1)c1ccccc1` [N-phenylbenzenesulfonamide]: the “Molar enthalpy of transition or fusion” value in data set [1] was determined as 5.62 ± 0.263 kcal/mol. Moreover, the Normal melting temperature in data set [2] came out at 110.4 ± 0.5 °C.

`Cc1cc(N)ccc1S(=O)(=O)Nc1ccccc1Cl` [4-amino-N-(2-chlorophenyl)-2-methylbenzenesulfonamide]: the “Molar enthalpy of transition or fusion” value in data set [1] turned out to be 11.3 ± 0.335 kcal/mol. Also, the Normal melting temperature in data set [2] was found to be 206.4 ± 0.5 °C.
